Experimental data as given in patent US12629359B2 (UNIVERSITA' DEGLI STUDI DI BRESCIA, priority 2020, dated 2026).
“Also recorded” adds a separate entry of the source.

How the values were obtained:
[1] = target: T1, alpha-synuclein/Synapsin III interaction (Homo sapiens, UniProt O14994+P37840); experiment: FLIM-FRET (donor lifetime) of alpha-synuclein/Synapsin III interaction in SK-N-SH cells; type: cell-based; details: 10 μM, 15 min after treatment
T1 construct: expressed in transfected cells; host or cells: neuronal-differentiated (retinoic acid) human SK-N-SH neuroblastoma cells, transient transfection with Lipofectamine 3000
T1 sequence (O14994 whole entry, one chain of several): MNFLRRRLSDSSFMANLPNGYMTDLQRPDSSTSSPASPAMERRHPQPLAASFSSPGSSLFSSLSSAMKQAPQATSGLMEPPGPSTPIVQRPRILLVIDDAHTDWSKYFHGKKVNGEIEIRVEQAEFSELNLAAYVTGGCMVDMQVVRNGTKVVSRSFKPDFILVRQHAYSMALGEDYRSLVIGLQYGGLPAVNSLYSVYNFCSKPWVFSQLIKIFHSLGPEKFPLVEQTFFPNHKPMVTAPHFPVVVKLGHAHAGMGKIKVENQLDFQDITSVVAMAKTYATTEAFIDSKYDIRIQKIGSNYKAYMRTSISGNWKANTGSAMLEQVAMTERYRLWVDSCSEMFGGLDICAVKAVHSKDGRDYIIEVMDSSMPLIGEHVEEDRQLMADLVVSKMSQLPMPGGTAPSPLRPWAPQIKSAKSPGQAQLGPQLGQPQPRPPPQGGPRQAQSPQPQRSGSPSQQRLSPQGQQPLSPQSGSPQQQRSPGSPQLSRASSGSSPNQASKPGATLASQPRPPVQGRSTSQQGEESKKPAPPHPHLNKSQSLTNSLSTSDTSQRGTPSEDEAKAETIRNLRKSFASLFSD
Description: (§1) The ability of the different compound to stimulate alpha-synuclein/Synapsin III interaction was evaluated by acceptor photobleaching FRET or FLIM in neuronal-like cells. In particular, we used neuronal-differentiated SK—N—SH neuroblastoma cells transiently transfected with red fluorescent protein (RFP)-tagged human wild type alpha-synuclein and green fluorescent protein (GFP)-tagged the human 63 kDa Synapsin III isoform.
The comparison of the lifetimes of the donor alone and in presence of the acceptor allows for precise and concentration-independent measurements of FRET efficiency. Fluorescence lifetime is defined as the average time that a fluorophore spends in the excited state after the absorption of light, prior to returning to the ground state by emitting a photon. Donor fluorescence lifetime is decreased when FRET occurs between the fluorophore pair. The comparison of the lifetimes of the donor alone and in presence of the acceptor allows for precise and concentration-independent measurements of FRET efficiency (Ishikawa-Ankerhold, H. C. et al. Molecules (Basel, Switzerland) 2012, 17, 4047-4132). Human neuroblastoma SK—N—SH cells were grown in complete medium comprising Dulbecco's modified Eagle's medium with 1000 mg glucose/l supplemented with 10% heat-inactivated fetal bovine serum, 100 μg/ml penicillin and 100 μg/ml streptomycin. Cells were maintained at 37° C. under a humidified atmosphere of 5% CO2 and […]. For FRET/FLIM studies, SK—N—SH cells were seeded onto poli-D-lysine-coat 1.7 cm2 glass chamber (15000 cells per well) and were maintained in differentiation medium for ten days by daily adding 10 μM retinoic acid to the medium. […] The time-domain FLIM was measured using a Time-Correlated Single Photon Counting (TCSPC) (PicoQuant) operated with SymPhoTime 64 software (PicoQuant). […] The images of GFP fluorescence generated in ZEN software were stored and processed with SymPhoTime 64. The mean fluorescence intensities within cell body were determined using the ROI tool in SymPhoTime 64. […] The fluorescence lifetime analysis was performed in the SymPhoTime 64 software within the cell body, automatically recognized by the software as ROI 0. Individual photon arrivals were detected using a SPAD detector and events were recorded by a PicoHarp 300 TCSPC module. […] The percentage FLIM-FRET efficiency was calculated as: 100×[1−(lifetime of donor with FRET/lifetime of donor without FRET)]. For lifetime analysis, fifteen cells were recorded for each condition, included GFP alone.

[2] = target: T1, alpha-synuclein/Synapsin III interaction; experiment: Acceptor photobleaching FRET of alpha-synuclein/Synapsin III interaction in neuronal-differentiated SK-N-SH cells; type: cell-based; details: 10 μM, 15 min; for stimulation of alpha-synuclein/Synapsin III interaction (FRET efficiency), in words: vs basal
Description: as §1
Acceptor photobleaching FRET microscopy allows an accurate evaluation of protein-protein interaction through the measurement of FRET efficiency. This parameter is indicative of the increase of donor fluorescence after complete photobleaching of the acceptor fluorescence, within a FRET pair of fluorophores (where the emission wavelength of a donor falls within the excitation wavelength of an acceptor). Since FRET efficiency is detectable only when the two fluorophores are sufficiently close to ensure that their linked proteins are interacting, the molecular proximity of these latter results strictly dependent on this parameter^36,37. […] Human neuroblastoma SK—N—SH cells were grown in complete medium comprising Dulbecco's modified Eagle's medium with 1000 mg glucose/l supplemented with 10% heat-inactivated fetal bovine serum, 100 μg/ml penicillin and 100 μg/ml streptomycin. Cells were maintained at 37° C. under a humidified atmosphere of 5% CO2 and […]. For FRET studies, SK—N—SH cells were seeded onto poli-D-lysine-coated 13 mm glass coverslips in 24-well plates (15000 cells per coverslip) and were maintained in differentiation medium for ten days by daily adding 10 μM retinoic acid to the medium. […] Fixed cells were analyzed by means of a Zeiss confocal laser microscope LSM 880 (Carl Zeiss) with the laser set on A=488-543. After identifying double positive cells three-to-six regions of interest (ROI) were analyzed for 4 series. Two images of basal condition (Pre-bleaching) were acquired before bleaching the RFP acceptor fluorophore with laser 543 set at 65% power. Then, other two images were acquired after the bleaching (Post-bleaching). The FRET efficiency (intended as the GFP recovery after RFP photobleaching) was measured by using Zen black software (Carl Zeiss). The average intensity of the background (outside the cell) was subtracted from the average intensity of the ROI and all the FRET values resulting from the different ROI were used for statistical analysis.
Human neuroblastoma SK—N—SH cells were grown in complete medium comprising Dulbecco's modified Eagle's medium with 1000 mg glucose/l supplemented with 10% heat-inactivated fetal bovine serum, 100 μg/ml penicillin and 100 μg/ml streptomycin. Cells were maintained at 37° C. under a humidified atmosphere of 5% CO2 and […]. For FRET studies, SK—N—SH cells were seeded onto poli-D-lysine-coated 13 mm glass coverslips in 24-well plates (15000 cells per coverslip) and were maintained in differentiation medium for ten days by daily adding 10 μM retinoic acid to the medium. […] Fixed cells were analyzed by means of a Zeiss confocal laser microscope LSM 880 (Carl Zeiss) with the laser set on λ=488-543. After identifying double positive cells three-to-six regions of interest (ROI) were analyzed for 4 series. Two images of basal condition (Pre-bleaching) were acquired before bleaching the RFP acceptor fluorophore with laser 543 set at 65% power. Then, other two images were acquired after the bleaching (Post-bleaching). The FRET efficiency (intended as the GFP recovery after RFP photobleaching) was measured by using Zen black software (Carl Zeiss). The average intensity of the background (outside the cell) was subtracted from the average intensity of the ROI and all the FRET values resulting from the different ROI were used for statistical analysis.

SMILES | stimulation of alpha-synuclein/Synapsin III interaction (FLIM), in words [1] | stimulation of alpha-synuclein/Synapsin III interaction (FRET efficiency), in words [2] | % decrease of tau amplitude (donor lifetime) vs MPH treated cells [1] [%] | % decrease of tau amplitude (donor lifetime) vs untreated cells [1] [%] | % FRET efficiency change vs control untreated cells ([2]; neuronally differentiated SK-N-SH cells) | % FRET efficiency change vs MPH-treated cells ([2]; vs MPH 10 μM) | % FRET efficiency change vs VI-threo-treated cells ([2]; vs VI-threo 10 μM)
COC(=O)[C@H](c1ccc(C)cc1)C1CCCCN1.Cl (stereo partly drawn) [I-erythro] | did not stimulate alpha-synuclein/Synapsin III interaction | not able to stimulate alpha-synuclein/Synapsin III interaction; also recorded: No significant increase | – | – | – | – | –
COC(=O)[C@@H](c1ccc(C)cc1)C1CCCCN1.Cl (stereo partly drawn) [I-threo, threo methyl 2-(piperidin-2-yl)-2-(p-tolyl)acetate hydrochloride] | able to promote alpha-synuclein/synapsin III interaction | significant increase in the FRET efficiency | -8.4 | -11.95 | +8.8% | +5.5% | +5.2%
